These results are taken from patent US7449473B2, “Substituted pyrrolo[3,2-d]pyrimidin-2,4-diones as A2b adenosine receptor antagonists” (CV Therapeutics, Inc., priority 2003, dated 2008).

The assay deals with T1, Human A2B adenosine receptor (Homo sapiens, UniProt P29275).
T1 construct: expressed in transfected cells; host or cells: HEK-293 (HEK-A2B), membrane preparation
T1 sequence (P29275 1-332): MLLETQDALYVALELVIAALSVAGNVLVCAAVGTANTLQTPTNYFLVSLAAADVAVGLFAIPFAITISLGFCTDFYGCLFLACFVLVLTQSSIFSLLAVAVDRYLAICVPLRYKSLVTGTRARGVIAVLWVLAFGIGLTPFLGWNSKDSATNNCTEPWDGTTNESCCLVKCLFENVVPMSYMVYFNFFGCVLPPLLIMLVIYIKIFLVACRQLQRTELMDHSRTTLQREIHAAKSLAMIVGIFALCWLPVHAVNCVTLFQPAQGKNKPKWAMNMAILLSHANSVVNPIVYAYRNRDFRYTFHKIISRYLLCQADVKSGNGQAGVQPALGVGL
Description: Radioligand binding for A2B adenosine receptor (3H-ZM241385 competition, HEK-A2B membranes). The conditions noted are these: competition with 10 nM 3H-ZM241385, HEK-A2B cell membranes. On the procedure: Radioligand Binding for A2B Adenosine Receptor.
Human A2B adenosine receptor cDNA was stably transfected into HEK-293 cells (referred to as HEK-A2B cells). Monolayer of HEK-A2B cells were washed with PBS once and harvested in a buffer containing 10 mM HEPES (pH 7.4), 10 mM EDTA and protease inhibitors. These cells were homogenized in polytron for 1 minute at setting 4 and centrifuged at 29000 g for 15 minutes at 4° C. The cell pellets were washed once with a buffer containing 10 mM HEPES (pH7.4), 1 mM EDTA and protease inhibitors, and were resuspended in the same buffer supplemented with 10% sucrose. Frozen aliquots were kept at −80° C. Competition assays were started by mixing 10 nM ^3H-ZM241385 (Tocris Cookson) with various concentrations of test compounds and 50 μg membrane proteins in TE buffer (50 mM Tris and 1 mM EDTA) supplemented with 1 Unit/mL adenosine deaminase. The assays were incubated for 90 minutes, stopped by filtration using Packard Harvester and washed four times with ice-cold TM buffer (10 mM Tris, 1 mM MgCl2, pH 7.4). Non specific binding was determined in the presence of 10 μM ZM241385. The affinities of compounds (i.e. Ki values) were calculated using GraphPad software.

`CCCn1c(=O)c2[nH]c(-c3cc[n+]([O-])cc3)cc2n(CCC)c1=O` [8-(N-oxypyridin-4-yl)-1,3-dipropyl-1H-pyrrolo[3,2-d]pyrimidine-2,6-dione] displayed a Ki of 544 nM.

Molecule `CCCn1c(=O)c2c(cc(-c3ccccn3)n2O)n(CCC)c1=O` [1,3-dipropyl-8-(pyridin-2-yl)-7-hydroxy-1H-pyrrolo[3,2-d]pyrimidine-2,6-dione] came in with a Ki of 129 nM.

The molecule `CCCn1c(=O)c2c(cc(-c3cnn(Cc4cccc(C(F)(F)F)c4)c3)n2O)n(CCC)c1=O` [8-(1-(3-(trifluoromethyl)benzyl)-1H-pyrazol-4-yl)-7-hydroxy-1,3-dipropyl-1H-pyrrolo[3,2-d]pyrimidine-2,6-dione] had a Ki of 9 nM.

The molecule `CCCn1c(=O)c2c(cc(-c3ccncc3)n2O)n(CCC)c1=O` [8-(pyridin-4-yl)-7-hydroxy-1,3-dipropyl-1H-pyrrolo[3,2-d]pyrimidine-2,6-dione] displayed a Ki of 12 nM.

With `CCCn1c(=O)c2[nH]c(-c3cnn(Cc4cccc(F)c4)c3)cc2n(CCC)c1=O` [8-(1-(3-fluorobenzyl)-1H-pyrazol-4-yl)-1,3-dipropyl-1H-pyrrolo[3,2-d]pyrimidine-2,6-dione], the Ki worked out at 13 nM.

The molecule `CCCn1c(=O)c2c(cc(-c3cnn(Cc4ccccc4)c3)n2O)n(CCC)c1=O` [8-(1-benzyl-1H-pyrazol-4-yl)-7-hydroxy-1,3-dipropyl-1H-pyrrolo[3,2-d]pyrimidine-2,6-dione] registered a Ki of 120 nM.

`CCCn1c(=O)c2[nH]c(-c3cnn(Cc4ccccc4)c3)cc2n(CCC)c1=O` [6-[1-benzylpyrazol-4-yl]-1,3-dipropyl-1,3-dihydropyrrolo[3,2-d]pyrimidine-2,4-dione]: the affinity, expressed as Ki, was 26 nM.
